According to patent publication US10760110B2, “Antibiotic testing and screening system” (priority 2017, dated 2020):
Where two headings read alike, the source gives them in different places.

Key:
Settings in all cases: Klebsiella pneumoniae
[1] = test system: K. pneumoniae NVT1001 strains with carbapenemase plasmids; test: Etest MIC of β-lactams, OmpK35/36 loss, ΔramR and/or carbapenemase (Table 9); assay type: cell-based, Klebsiella pneumoniae
Outline: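 Etest MICs, with values between standard dilutions rounded up to the next two-fold step, were measured in K. pneumoniae NVT1001 carrying PCR-cloned resistance genes on pACYC177 or pACYC184 plasmids. Interpretation used CLSI 2017 breakpoints, CLSI 2015 for cephalothin and EUCAST 2017 for moxifloxacin. For the blaOXA-48 strain, ceftazidime and cefotaxime were additionally tested by CLSI broth microdilution.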

[2] = test system: K. pneumoniae NVT1001 ΔramRΔompK35/36 mutant and its revertants; test: Etest MIC, ΔramRΔompK35/36 mutant and its revertants (Table 7); assay type: cell-based
[3] = test system: K. pneumoniae NVT1001 and its ΔompK35/36 and/or ΔramR mutants; test: Etest MIC, OmpK35/36 loss and AcrAB-TolC overexpression (ΔramR) strains (Table 6); assay type: cell-based, Klebsiella pneumoniae
Outline: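 Etest MICs against K. pneumoniae NVT1001 and its ΔompK35/36 and/or ΔramR mutants, rounded up to the next two-fold value. For NVT1001 carrying pACYC177-blaOXA-48, ceftazidime and cefotaxime MICs by CLSI broth microdilution, interpreted with CLSI 2017 breakpoints.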

[4] = IMP-8 on pACYC177, WT (NVT1001), read-out: MIC
[5] = IMP-8 on pACYC177, Δ35 (ΔompK35 mutant)
[6] = IMP-8 on pACYC177, Δ35/36 (ΔompK35/36 mutant)
[7] = IMP-8 on pACYC177, Δ36 (ΔompK36 mutant)
[8] = IMP-8 on pACYC177, ΔramR mutant
[9] = IMP-8 on pACYC177, ΔramRΔ35 (ΔramRΔompK35 mutant)
[10] = IMP-8 on pACYC177, ΔramRΔ35/36 (ΔramRΔompK35/36 mutant)
[11] = IMP-8 on pACYC177, ΔramRΔ36 (ΔramRΔompK36 mutant)
[12] = KPC-2 on pACYC177, WT (NVT1001), read-out: MIC
[13] = KPC-2 on pACYC177, Δ35 (ΔompK35 mutant)
[14] = KPC-2 on pACYC177, Δ35/36 (ΔompK35/36 mutant)
[15] = KPC-2 on pACYC177, Δ36 (ΔompK36 mutant)
[16] = KPC-2 on pACYC177, ΔramR mutant
[17] = KPC-2 on pACYC177, ΔramRΔ35 (ΔramRΔompK35 mutant)
[18] = KPC-2 on pACYC177, ΔramRΔ35/36 (ΔramRΔompK35/36 mutant)
[19] = KPC-2 on pACYC177, ΔramRΔ36 (ΔramRΔompK36 mutant)
[20] = KPC-3 on pACYC177, WT (NVT1001), read-out: MIC
[21] = KPC-3 on pACYC177, Δ35 (ΔompK35 mutant)
[22] = KPC-3 on pACYC177, Δ35/36 (ΔompK35/36 mutant)
[23] = KPC-3 on pACYC177, Δ36 (ΔompK36 mutant)
[24] = KPC-3 on pACYC177, ΔramR mutant
[25] = KPC-3 on pACYC177, ΔramRΔ35 (ΔramRΔompK35 mutant)
[26] = KPC-3 on pACYC177, ΔramRΔ35/36 (ΔramRΔompK35/36 mutant)
[27] = KPC-3 on pACYC177, ΔramRΔ36 (ΔramRΔompK36 mutant)
[28] = NDM-1 on pACYC177, WT (NVT1001), read-out: MIC
[29] = NDM-1 on pACYC177, Δ35 (ΔompK35 mutant)
[30] = NDM-1 on pACYC177, Δ35/36 (ΔompK35/36 mutant)
[31] = NDM-1 on pACYC177, Δ36 (ΔompK36 mutant)
[32] = NDM-1 on pACYC177, ΔramR mutant
[33] = NDM-1 on pACYC177, ΔramRΔ35 (ΔramRΔompK35 mutant)
[34] = NDM-1 on pACYC177, ΔramRΔ35/36 (ΔramRΔompK35/36 mutant)
[35] = NDM-1 on pACYC177, ΔramRΔ36 (ΔramRΔompK36 mutant)
[36] = OXA-48 on pACYC177, WT (NVT1001), read-out: MIC
[37] = OXA-48 on pACYC177, Δ35 (ΔompK35 mutant)
[38] = OXA-48 on pACYC177, Δ35/36 (ΔompK35/36 mutant)
[39] = OXA-48 on pACYC177, Δ36 (ΔompK36 mutant)
[40] = OXA-48 on pACYC177, ΔramR mutant
[41] = OXA-48 on pACYC177, ΔramRΔ35 (ΔramRΔompK35 mutant)
[42] = OXA-48 on pACYC177, ΔramRΔ35/36 (ΔramRΔompK35/36 mutant)
[43] = OXA-48 on pACYC177, ΔramRΔ36 (ΔramRΔompK36 mutant)
[44] = VIM-1 on pACYC177, WT (NVT1001), read-out: MIC
[45] = VIM-1 on pACYC177, Δ35 (ΔompK35 mutant)
[46] = VIM-1 on pACYC177, Δ35/36 (ΔompK35/36 mutant)
[47] = VIM-1 on pACYC177, Δ36 (ΔompK36 mutant)
[48] = VIM-1 on pACYC177, ΔramR mutant
[49] = VIM-1 on pACYC177, ΔramRΔ35 (ΔramRΔompK35 mutant)
[50] = VIM-1 on pACYC177, ΔramRΔ35/36 (ΔramRΔompK35/36 mutant)
[51] = VIM-1 on pACYC177, ΔramRΔ36 (ΔramRΔompK36 mutant)
[52] = no supplemental plasmid, WT (NVT1001), read-out: MIC
[53] = no supplemental plasmid, Δ35 (ΔompK35 mutant)
[54] = no supplemental plasmid, Δ35/36 (ΔompK35/36 mutant)
[55] = no supplemental plasmid, Δ36 (ΔompK36 mutant)
[56] = no supplemental plasmid, ΔramR mutant
[57] = no supplemental plasmid, ΔramRΔ35 (ΔramRΔompK35 mutant)
[58] = no supplemental plasmid, ΔramRΔ35/36 (ΔramRΔompK35/36 mutant)
[59] = no supplemental plasmid, ΔramRΔ36 (ΔramRΔompK36 mutant)
[60] = ΔramRΔompK35/36::ompK35/36 revertant
[61] = ΔramRΔompK35/36::ompK35 revertant
[62] = ΔramRΔompK35/36::ompK36 revertant
[63] = ΔramRΔompK35/36::ramR revertant
[64] = ΔramRΔompK35/36::ramR::ompK35/36 revertant
[65] = ΔramRΔompK35/36::ramR::ompK35 revertant
[66] = ΔramRΔompK35/36::ramR::ompK36 revertant
[67] = ΔramRΔ35/36, ΔramRΔompK35/36 mutant

Measured: MIC

CC(=O)OCC1=C(C(=O)O)N2C(=O)[C@@H](NC(=O)Cc3cccs3)[C@H]2SC1 [Cephalothin]
16 µg/mL: [1]; [55] | [3]; Δ36, ΔompK36 mutant
128 µg/mL: [2]; [62]
32 µg/mL: [2]; [65]
8 µg/mL: [1]; [52] | [1]; [53] | [2]; [64] | [2]; [66] | [3]; WT, NVT1001, read-out: MIC | [3]; Δ35, ΔompK35 mutant
256 µg/mL: [1]; [36] | [1]; [37] | [1]; [54] | [3]; Δ35/36, ΔompK35/36 mutant
> 256 µg/mL: [1]; [4] | [1]; [5] | [1]; [6] | [1]; [7] | [1]; [8] | [1]; [9] | [1]; [10] | [1]; [11] | [1]; [12] | [1]; [13] | [1]; [14] | [1]; [15] | [1]; [16] | [1]; [17] | [1]; [18] | [1]; [19] | [1]; [20] | [1]; [21] | [1]; [22] | [1]; [23] | [1]; [24] | [1]; [25] | [1]; [26] | [1]; [27] | [1]; [28] | [1]; [29] | [1]; [30] | [1]; [31] | [1]; [32] | [1]; [33] | [1]; [34] | [1]; [35] | [1]; [38] | [1]; [39] | [1]; [40] | [1]; [41] | [1]; [42] | [1]; [43] | [1]; [44] | [1]; [45] | [1]; [46] | [1]; [47] | [1]; [48] | [1]; [49] | [1]; [50] | [1]; [51] | [1]; [58] | [1]; [59] | [2]; [61] | [2]; [63] | [2]; ΔramRΔompK35/36 mutant | [3]; [67] | [3]; ΔramRΔ36, ΔramRΔompK36 mutant
64 µg/mL: [1]; [56] | [1]; [57] | [2]; [60] | [3]; ΔramR mutant | [3]; ΔramRΔ35, ΔramRΔompK35 mutant

C[C@@H](O)[C@H]1C(=O)N2C(C(=O)O)=C(S[C@@H]3CN[C@H](CNS(N)(=O)=O)C3)[C@H](C)[C@H]12 [Doripenem]
8 µg/mL: [1]; [20] | [1]; [39]
0.25 µg/mL: [1]; [59] | [2]; [61] | [2]; [63] | [3]; ΔramRΔ36, ΔramRΔompK36 mutant
32 µg/mL: [1]; [10] | [1]; [11] | [1]; [13] | [1]; [17] | [1]; [21] | [1]; [25] | [1]; [29] | [1]; [32] | [1]; [33] | [1]; [45] | [1]; [48] | [1]; [49]
0.125 µg/mL: [1]; [54] | [2]; [65] | [2]; [66] | [3]; Δ35/36, ΔompK35/36 mutant
16 µg/mL: [1]; [12] | [1]; [16] | [1]; [24] | [1]; [28] | [1]; [44]
0.03 µg/mL: [1]; [56] | [1]; [57] | [3]; ΔramR mutant | [3]; ΔramRΔ35, ΔramRΔompK35 mutant
1 µg/mL: [1]; [4] | [1]; [8] | [1]; [41]
2 µg/mL: [1]; [5] | [1]; [7] | [1]; [9] | [1]; [36] | [1]; [37] | [1]; [40]
0.06 µg/mL: [1]; [52] | [1]; [53] | [1]; [55] | [2]; [60] | [2]; [62] | [2]; [64] | [3]; WT, NVT1001, read-out: MIC | [3]; Δ35, ΔompK35 mutant | [3]; Δ36, ΔompK36 mutant
> 32 µg/mL: [1]; [6] | [1]; [14] | [1]; [15] | [1]; [18] | [1]; [19] | [1]; [22] | [1]; [23] | [1]; [26] | [1]; [27] | [1]; [30] | [1]; [31] | [1]; [34] | [1]; [35] | [1]; [38] | [1]; [42] | [1]; [43] | [1]; [46] | [1]; [47] | [1]; [50] | [1]; [51]
0.5 µg/mL: [1]; [58] | [2]; ΔramRΔompK35/36 mutant | [3]; [67]
